The structures appear in SMILES notation.

The target in this test is T1, hNav1.7 channels (Homo sapiens, UniProt Q15858).
T1 construct: host or cells: HEK293
T1 sequence (Q15858 whole entry): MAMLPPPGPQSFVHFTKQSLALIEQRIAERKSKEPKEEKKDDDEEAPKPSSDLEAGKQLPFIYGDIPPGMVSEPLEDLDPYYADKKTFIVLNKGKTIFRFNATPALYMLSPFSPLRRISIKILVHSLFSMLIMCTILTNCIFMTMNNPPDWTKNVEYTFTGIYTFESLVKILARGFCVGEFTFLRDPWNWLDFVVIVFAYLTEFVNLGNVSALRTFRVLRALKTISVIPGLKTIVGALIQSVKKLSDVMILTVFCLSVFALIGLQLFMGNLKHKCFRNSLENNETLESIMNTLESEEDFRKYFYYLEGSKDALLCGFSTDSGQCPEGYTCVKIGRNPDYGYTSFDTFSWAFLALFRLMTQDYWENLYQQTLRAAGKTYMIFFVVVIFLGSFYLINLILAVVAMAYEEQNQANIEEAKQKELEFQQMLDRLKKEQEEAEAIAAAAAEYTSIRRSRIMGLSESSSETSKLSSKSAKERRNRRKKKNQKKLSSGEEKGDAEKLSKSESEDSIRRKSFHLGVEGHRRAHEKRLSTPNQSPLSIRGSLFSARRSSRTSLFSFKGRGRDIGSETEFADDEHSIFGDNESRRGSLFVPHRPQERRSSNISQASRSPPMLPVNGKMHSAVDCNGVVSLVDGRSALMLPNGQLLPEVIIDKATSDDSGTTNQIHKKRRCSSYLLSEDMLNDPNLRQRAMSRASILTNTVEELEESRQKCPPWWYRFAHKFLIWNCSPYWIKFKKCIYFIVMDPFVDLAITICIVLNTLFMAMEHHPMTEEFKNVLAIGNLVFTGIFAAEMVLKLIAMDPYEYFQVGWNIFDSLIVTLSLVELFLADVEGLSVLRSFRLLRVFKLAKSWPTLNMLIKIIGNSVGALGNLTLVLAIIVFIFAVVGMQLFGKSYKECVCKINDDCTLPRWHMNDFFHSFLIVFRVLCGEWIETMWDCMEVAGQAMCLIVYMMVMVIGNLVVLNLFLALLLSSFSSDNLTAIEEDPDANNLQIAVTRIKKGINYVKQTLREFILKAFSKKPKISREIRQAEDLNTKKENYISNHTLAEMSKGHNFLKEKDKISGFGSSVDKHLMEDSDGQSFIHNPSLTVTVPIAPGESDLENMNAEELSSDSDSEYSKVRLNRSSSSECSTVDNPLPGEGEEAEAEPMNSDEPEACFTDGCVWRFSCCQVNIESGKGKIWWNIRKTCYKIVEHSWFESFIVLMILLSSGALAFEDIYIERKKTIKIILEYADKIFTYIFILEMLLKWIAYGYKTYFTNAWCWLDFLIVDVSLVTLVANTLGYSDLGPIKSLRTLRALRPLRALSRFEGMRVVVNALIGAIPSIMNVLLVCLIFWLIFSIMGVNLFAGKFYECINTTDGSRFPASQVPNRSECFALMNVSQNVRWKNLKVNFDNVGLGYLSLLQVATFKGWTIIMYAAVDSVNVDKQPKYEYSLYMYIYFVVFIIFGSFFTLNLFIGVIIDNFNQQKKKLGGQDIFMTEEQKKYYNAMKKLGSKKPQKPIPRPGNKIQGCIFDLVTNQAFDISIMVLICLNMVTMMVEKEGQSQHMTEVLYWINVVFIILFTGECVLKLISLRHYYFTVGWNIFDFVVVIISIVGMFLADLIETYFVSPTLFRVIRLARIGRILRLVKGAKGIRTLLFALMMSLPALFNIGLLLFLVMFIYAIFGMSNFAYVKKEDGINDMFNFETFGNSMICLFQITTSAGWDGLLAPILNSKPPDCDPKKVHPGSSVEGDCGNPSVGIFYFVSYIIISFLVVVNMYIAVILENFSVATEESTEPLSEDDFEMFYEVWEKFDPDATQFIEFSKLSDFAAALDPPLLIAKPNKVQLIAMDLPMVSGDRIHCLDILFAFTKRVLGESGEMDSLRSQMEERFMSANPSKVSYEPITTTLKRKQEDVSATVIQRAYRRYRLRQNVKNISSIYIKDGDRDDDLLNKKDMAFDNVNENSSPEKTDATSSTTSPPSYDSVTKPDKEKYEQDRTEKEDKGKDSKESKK
Briefly: hNav1.7 channel in vitro patch-clamp assay. The format is cell-based. Conditions: stable HEK293 cell line expressing hNav1.7; whole cell patch-clamp (QPatch HTX and/or conventional), room temperature; voltage protocol not given. On the procedure:
hNav1.7 Channel In Vitro Patch-Clamp Assay
Cells: Sable HEK293 (human embryonic kidney) cell line expressing hNav1.7 channels was used in the assay. The cell line was obtained from Millipore (Millipore Corporation, MA).
Patch-clamp recordings: The recordings were performed on QPatch HTX (Sophion Bioscience, Denmark) and/or conventional patch-clamp (Axon Multiclamp 700B systems, Molecular Devices, CA) platforms at room temperature, using whole cell patch-clamp techniques. The composition of extracellular solution was (in mM): HEPES 5, NaCl 40, KCl 3, CaCl2 1, MgCl2 1, Choline Chloride 100. Adjust pH to 7.2 with 1N NaOH, osmolarity to 300-310 mOsm with sucrose. The composition of intracellular solution was (in mM): HEPES 10, NaCl 10, Na2ATP 1, MgCl2 2, KF 135, EGTA 10. Adjust pH to 7.2 with 1N NaOH, osmolarity to 290-300 mOsm with sucrose.
For conventional patch-clamp, 35 mm culture dishes containing hNav1.7 cells were placed on the stage of an inverted microscope and continuously perfused with extracellular solution from a perfusion system (Biologic Rapid solution changer, RSC-160, ˜1 ml/min). […] The recordings were controlled by pCLAMP10 software. Test compounds were dissolved in 100% DMSO to make stock solutions for each test concentration, and then diluted into extracellular solution to achieve final concentration for testing. Final DMSO concentration was less than 0.3%. Two voltage protocols were used in hNav1.7 assay: for non-inactivated protocol, the sodium currents were elicited by a 2 ms pulse to −10 mV from a holding potential of −110 mV. For inactivated protocol, the holding potential was set at V1/2. The voltage was firstly stepped to −110 mV for 50 ms, then to −10 mV for 2 ms and then stepped back to holding potential. In both protocols the voltage command was given in every 10 s. Compound effect (% inhibition) was determined by difference in current amplitude before and after the application of test compounds. IC50 values were determined from concentration-response curves that were obtained with Hill fitting.
For QPatch HTX assay, hNav1.7 cells grown to 50%-80% confluence were rinsed with DPBS and dissociated with Tryple (Invitrogen, 12605-010). The dissociated cells were then mixed with extracellular solution. After centrifuge, the cells were resuspended in extracellular solution and used in the QPatch experiment. The whole-cell protocols, voltage protocols and application protocols were established with QPatch Assay Software 3.4 (Sophion Bioscience, Denmark). Only the inactivated protocol was used in the QPatch assay.
Background: The patch-clamp technique gives a direct electrical read-out from membranes.
For orientation: IC50 means the concentration that inhibits the measured activity by half. Low readings indicate greater potency in that assay, high ones weaker potency in that assay. As to `CC1CCC(COc2ncc(N3C(=O)C4(CC4)c4cc5c(NS(=O)(=O)C6CC6)noc5cc43)cc2Cl)CC1` (stereo not drawn) [Example 23, N-(7′-(5-chloro-6-((4-methylcyclohexyl)methoxy)pyridin-3-yl)-6′-oxo-6′,7′-dihydrospiro[cyclopropane-1,5′-isoxazolo[4,5-f]indol]-3′-yl)cyclopropanesulfonamide], the 50% inhibitory concentration (IC50) is 200 nM.

For `CCC(C)Oc1ncc(N2C(=O)C3(CC3)c3cc4c(NS(=O)(=O)C5CC5)noc4cc32)cc1Cl` (stereo not drawn) [Example 24, N-(7′-(6-(sec-butoxy)-5-chloropyridin-3-yl)-6′-oxo-6′,7′-dihydrospiro[cyclopropane-1,5′-isoxazolo[4,5-f]indol]-3′-yl)cyclopropanesulfonamide], the IC50 was found to be 70 nM.

`O=C1N(c2cnc(OCC3CCC3)c(Cl)c2)c2cc3onc(NS(=O)(=O)C4CC4)c3cc2C12CC2` [Example 25, N-(7′-(5-chloro-6-(cyclobutylmethoxy)pyridin-3-yl)-6′-oxo-6′,7′-dihydrospiro[cyclopropane-1,5′-isoxazolo[4,5-f]indol]-3′-yl)cyclopropanesulfonamide] gave an IC50 of 80 nM.

In turn, `O=C1N(c2cnc(OC3CCCCC3)c(Cl)c2)c2cc3onc(NS(=O)(=O)C4CC4)c3cc2C12CC2` [Example 26, N-(7′-(5-chloro-6-(cyclohexyloxy)pyridin-3-yl)-6′-oxo-6′,7′-dihydrospiro[cyclopropane-1,5′-isoxazolo[4,5-f]indol]-3′-yl)cyclopropanesulfonamide] had an IC50 of 110 nM.

`O=C1N(c2cnc(OCC3CCCC3)c(Cl)c2)c2cc3onc(NS(=O)(=O)C4CC4)c3cc2C12CC2` [Example 27, N-(7′-(5-chloro-6-(cyclopentylmethoxy)pyridin-3-yl)-6′-oxo-6′,7′-dihydrospiro[cyclopropane-1,5′-isoxazolo[4,5-f]indol]-3′-yl)cyclopropanesulfonamide] had an IC50 of 90 nM.

`O=C1N(c2cnc(OCC3CC3)c(Cl)c2)c2cc3onc(NS(=O)(=O)C4CC4)c3cc2C12CC2` [Example 28, N-(7′-(5-chloro-6-(cyclopropylmethoxy)pyridin-3-yl)-6′-oxo-6′,7′-dihydrospiro[cyclopropane-1,5′-isoxazolo[4,5-f]indol]-3′-yl)cyclopropanesulfonamide] came in with an IC50 of 200 nM.

As for `COc1ncc(N2C(=O)C3(CC3)c3cc4c(NS(=O)(=O)C5CC5)noc4cc32)cc1Cl` [Example 29, N-(7′-(5-chloro-6-methoxypyridin-3-yl)-6′-oxo-6′,7′-dihydrospiro[cyclopropane-1,5′-isoxazolo[4,5-f]indol]-3′-yl)cyclopropanesulfonamide], the midpoint of inhibition, the IC50, lay at 800 nM.

As to `O=C1N(c2cnc(OC(F)F)c(Cl)c2)c2cc3onc(NS(=O)(=O)C4CC4)c3cc2C12CC2` [Example 30, N-(7′-(5-chloro-6-(difluoromethoxy)pyridin-3-yl)-6′-oxo-6′,7′-dihydrospiro[cyclopropane-1,5′-isoxazolo[4,5-f]indol]-3′-yl)cyclopropanesulfonamide], the IC50 came to 630 nM.

In turn, `CS(=O)(=O)Nc1noc2cc3c(cc12)C1(CC1)C(=O)N3c1ccc(Cl)c(Cl)c1` [Example 31, N-(7′-(3,4-dichlorophenyl)-6′-oxo-6′,7′-dihydrospiro[cyclopropane-1,5′-isoxazolo[4,5-f]indol]-3′-yl)methanesulfonamide] came in with an IC50 of 800 nM.

`CC(C)COc1c(Cl)cc(N2C(=O)C3(CC3)c3cc4c(NS(C)(=O)=O)noc4cc32)cc1C#N` [Example 32, N-(7′-(3-chloro-5-cyano-4-isobutoxyphenyl)-6′-oxo-6′,7′-dihydrospiro[cyclopropane-1,5′-isoxazolo[4,5-f]indol]-3′-yl)methanesulfonamide] had a concentration for half-maximal inhibition (IC50) of 900 nM.

`CC(C)COc1c(F)cc(N2C(=O)C3(CC3)c3cc4c(NS(=O)(=O)C5CC5)noc4cc32)cc1Cl` [Example 33, N-(7′-(3-chloro-5-fluoro-4-isobutoxyphenyl)-6′-oxo-6′,7′-dihydrospiro[cyclopropane-1,5′-isoxazolo[4,5-f]indol]-3′-yl)cyclopropanesulfonamide] yielded an IC50 of 100 nM.

In turn, `CC(C)COc1ncc(-n2c(=O)n(C)c3cc4c(NS(C)(=O)=O)noc4cc32)cc1Cl` [Example 34, N-(7-(5-chloro-6-isobutoxypyridin-3-yl)-5-methyl-6-oxo-6,7-dihydro-5H-imidazo[4′,5′:4,5]benzo[1,2-d]isoxazol-3-yl)methanesulfonamide] showed a concentration for half-maximal inhibition (IC50) of 100 nM.

`CC(C)COc1ncc(-n2c(=O)n(C)c3cc4c(NS(=O)(=O)C5CC5)noc4cc32)cc1Cl` [Example 35, N-(7-(5-chloro-6-isobutoxypyridin-3-yl)-5-methyl-6-oxo-6,7-dihydro-5H-imidazo[4′,5′:4,5]benzo[1,2-d]isoxazol-3-yl)cyclopropanesulfonamide] yielded a 50% inhibitory concentration (IC50) of 100 nM.

The compound `CC(C)COc1ncc(N2C(=O)C(C)(C)c3cc4c(NS(=O)(=O)C5CC5)noc4cc32)cc1Cl` [Example 36, N-(7-(5-chloro-6-isobutoxypyridin-3-yl)-5,5-dimethyl-6-oxo-6,7-dihydro-5H-isoxazolo[4,5-f]indol-3-yl)cyclopropanesulfonamide] registered a 50% inhibitory concentration (IC50) of 70 nM.

As to `CC(C)COc1ncc(N2C(=O)C3(CCC3)c3cc4c(NS(=O)(=O)C5CC5)noc4cc32)cc1Cl` [Example 37, N-(7′-(5-chloro-6-isobutoxypyridin-3-yl)-6′-oxo-6′,7′-dihydrospiro[cyclobutane-1,5′-isoxazolo[4,5-f]indol]-3′-yl)cyclopropanesulfonamide], the IC50 is 40 nM.

Regarding `CC(C)COc1ncc(N2C(=O)C3(CCCC3)c3cc4c(NS(=O)(=O)C5CC5)noc4cc32)cc1Cl` [Example 38, N-(7′-(5-chloro-6-isobutoxypyridin-3-yl)-6′-oxo-6′,7′-dihydrospiro[cyclopentane-1,5′-isoxazolo[4,5-f]indol]-3′-yl)cyclopropanesulfonamide], the IC50 came out at 500 nM.

`CC(C)COc1ncc(N2C(=O)C3(CCCCC3)c3cc4c(NS(=O)(=O)C5CC5)noc4cc32)cc1Cl` [Example 39, N-(7′-(5-chloro-6-isobutoxypyridin-3-yl)-6′-oxo-6′,7′-dihydrospiro[cyclohexane-1,5′-isoxazolo[4,5-f]indol]-3′-yl)cyclopropanesulfonamide] had a half-maximal inhibitory concentration (IC50) of 700 nM.

`CC(C)COc1ncc(-n2c(C(F)(F)F)cc3cc4c(NS(C)(=O)=O)noc4cc32)cc1Cl` [Example 40b, N-(7-(5-chloro-6-isobutoxypyridin-3-yl)-6-(trifluoromethyl)-7H-isoxazolo[4,5-f]indol-3-yl)methanesulfonamide] gave a half-inhibitory concentration (IC50) of 40 nM.

As for `CC(C)COc1ncc(-n2cc(C(F)(F)F)c3cc4c(NS(=O)(=O)C5CC5)noc4cc32)cc1Cl` [Example 41, N-(7-(5-chloro-6-isobutoxypyridin-3-yl)-5-(trifluoromethyl)-7H-isoxazolo[4,5-f]indol-3-yl)cyclopropanesulfonamide], 50 nM corresponded to half-maximal inhibition (IC50).

`Cc1cn(-c2cnc(OCC(C)C)c(Cl)c2)c2cc3onc(NS(=O)(=O)C4CC4)c3cc12` [Example 42, N-(7-(5-chloro-6-isobutoxypyridin-3-yl)-5-methyl-7H-isoxazolo[4,54]indol-3-yl)cyclopropanesulfonamide] showed an IC50 of 70 nM.

`CC(C)COc1ncc(-n2c(C(F)(F)F)nc3cc4c(NS(=O)(=O)C5CC5)noc4cc32)cc1Cl` [Example 43, N-(7-(5-chloro-6-isobutoxypyridin-3-yl)-6-(trifluoromethyl)-7H-imidazo[4′,5′:4,5]benzo[1,2-d]isoxazol-3-yl)cyclopropanesulfonamide] returned a 50% inhibitory concentration (IC50) of 100 nM.

As for `Cc1nn(-c2cnc(OCC(C)C)c(Cl)c2)c2cc3onc(NS(C)(=O)=O)c3cc12` [Example 44, N-(7-(5-chloro-6-isobutoxypyridin-3-yl)-5-methyl-7H-isoxazolo[4,54]indazol-3-yl)methanesulfonamide], inhibition was half-maximal at 100 nM (IC50).

Turning to `Cc1nn(-c2cnc(OCC(C)C)c(Cl)c2)c2cc3onc(NS(=O)(=O)C4CC4)c3cc12` [Example 45, N-(7-(5-chloro-6-isobutoxypyridin-3-yl)-5-methyl-7H-isoxazolo[4,5-f]indazol-3-yl)cyclopropanesulfonamide], it took 30 nM to reach half-maximal inhibition (IC50).

Take `Cc1nn(-c2ccc(Cl)c(Cl)c2)c2cc3onc(NS(=O)(=O)C4CC4)c3cc12` [Example 46, N-(7-(3,4-dichlorophenyl)-5-methyl-7H-isoxazolo[4,5-f]indazol-3-yl)cyclopropanesulfonamide]: the IC50 came out at 100 nM.

The values above are taken from US20150183802A1, “TRICYCLIC SULFONAMIDE DERIVATIVES” (NOVARTIS AG, priority 2013, published 2015).
